From ChEMBL document CHEMBL1130919, “Probing the importance of spacial and conformational domains in captopril analogs for angiotensin converting enzyme activity” (Bioorg Med Chem Lett, 1998)

Tests used:
[1] = biological target: T1, Angiotensin-converting enzyme (Oryctolagus cuniculus, UniProt P12822); experiment: Compound was tested for its inhibitory activity against Angiotensin I converting enzyme
T1 sequence (P12822 whole entry): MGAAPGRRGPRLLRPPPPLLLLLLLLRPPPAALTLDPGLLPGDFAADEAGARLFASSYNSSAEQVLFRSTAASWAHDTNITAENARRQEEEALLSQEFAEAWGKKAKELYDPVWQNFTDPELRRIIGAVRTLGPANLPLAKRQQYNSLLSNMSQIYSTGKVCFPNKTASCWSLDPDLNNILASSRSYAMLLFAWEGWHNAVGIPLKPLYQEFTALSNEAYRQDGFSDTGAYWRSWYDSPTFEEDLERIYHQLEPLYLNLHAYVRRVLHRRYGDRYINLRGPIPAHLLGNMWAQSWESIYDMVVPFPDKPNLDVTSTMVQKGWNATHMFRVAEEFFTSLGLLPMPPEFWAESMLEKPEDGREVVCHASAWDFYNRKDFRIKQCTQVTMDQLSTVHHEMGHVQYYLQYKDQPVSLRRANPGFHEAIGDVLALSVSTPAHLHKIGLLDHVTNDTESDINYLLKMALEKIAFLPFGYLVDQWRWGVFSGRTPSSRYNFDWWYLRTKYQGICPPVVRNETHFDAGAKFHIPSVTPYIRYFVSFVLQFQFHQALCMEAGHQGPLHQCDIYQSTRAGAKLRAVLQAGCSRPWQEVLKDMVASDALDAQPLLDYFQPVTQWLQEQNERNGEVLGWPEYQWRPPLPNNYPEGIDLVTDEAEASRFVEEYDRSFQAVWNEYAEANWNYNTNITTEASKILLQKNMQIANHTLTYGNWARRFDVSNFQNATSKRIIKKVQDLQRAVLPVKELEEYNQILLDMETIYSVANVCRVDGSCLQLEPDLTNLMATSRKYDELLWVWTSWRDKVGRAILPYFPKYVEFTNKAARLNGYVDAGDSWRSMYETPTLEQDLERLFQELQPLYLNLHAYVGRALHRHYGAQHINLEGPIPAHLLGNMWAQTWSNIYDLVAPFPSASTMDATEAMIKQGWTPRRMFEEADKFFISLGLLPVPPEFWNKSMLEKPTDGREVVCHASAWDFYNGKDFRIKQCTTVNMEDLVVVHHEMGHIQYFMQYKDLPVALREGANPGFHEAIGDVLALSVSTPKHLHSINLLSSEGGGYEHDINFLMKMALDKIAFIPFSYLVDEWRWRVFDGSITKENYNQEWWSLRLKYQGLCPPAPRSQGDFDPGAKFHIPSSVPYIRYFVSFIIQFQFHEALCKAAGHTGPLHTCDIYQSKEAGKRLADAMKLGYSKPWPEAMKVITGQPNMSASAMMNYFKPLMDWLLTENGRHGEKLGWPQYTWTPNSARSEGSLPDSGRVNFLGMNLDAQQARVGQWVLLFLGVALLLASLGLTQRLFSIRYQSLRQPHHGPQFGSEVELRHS

Neprilysin = biological target: T2, Neprilysin (Rattus norvegicus, UniProt P07861); experiment: Compound was tested for its inhibitory activity against neutral endopeptidase 24.11 enzyme at the concentration of 10 uM; Inactive
T2 sequence (P07861 whole entry): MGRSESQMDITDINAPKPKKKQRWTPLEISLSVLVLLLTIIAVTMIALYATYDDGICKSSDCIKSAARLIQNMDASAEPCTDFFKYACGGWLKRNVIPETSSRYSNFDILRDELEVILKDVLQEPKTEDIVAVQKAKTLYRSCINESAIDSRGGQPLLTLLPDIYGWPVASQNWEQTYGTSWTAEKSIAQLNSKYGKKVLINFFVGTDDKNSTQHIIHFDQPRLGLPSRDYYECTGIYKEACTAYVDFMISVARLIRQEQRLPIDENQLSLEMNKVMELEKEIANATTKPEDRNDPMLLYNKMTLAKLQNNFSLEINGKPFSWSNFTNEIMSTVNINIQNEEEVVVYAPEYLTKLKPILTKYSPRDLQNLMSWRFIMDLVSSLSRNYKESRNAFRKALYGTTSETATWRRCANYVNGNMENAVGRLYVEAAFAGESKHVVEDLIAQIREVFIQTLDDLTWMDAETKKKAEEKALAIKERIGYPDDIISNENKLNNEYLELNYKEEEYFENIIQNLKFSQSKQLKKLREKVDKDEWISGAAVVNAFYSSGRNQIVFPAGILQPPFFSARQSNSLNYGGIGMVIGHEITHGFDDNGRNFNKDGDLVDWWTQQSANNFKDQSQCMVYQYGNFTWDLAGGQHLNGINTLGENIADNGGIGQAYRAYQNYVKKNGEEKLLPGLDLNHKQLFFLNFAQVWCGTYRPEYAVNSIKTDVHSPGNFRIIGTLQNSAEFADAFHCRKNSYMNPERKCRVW

[2] = biological target: T3, Endothelin-converting enzyme 1 (Homo sapiens, UniProt P42892); experiment: Compound was tested for its inhibitory activity against Endothelin-converting enzyme at the concentration of 1 uM; Inactive
T3 sequence (P42892 whole entry): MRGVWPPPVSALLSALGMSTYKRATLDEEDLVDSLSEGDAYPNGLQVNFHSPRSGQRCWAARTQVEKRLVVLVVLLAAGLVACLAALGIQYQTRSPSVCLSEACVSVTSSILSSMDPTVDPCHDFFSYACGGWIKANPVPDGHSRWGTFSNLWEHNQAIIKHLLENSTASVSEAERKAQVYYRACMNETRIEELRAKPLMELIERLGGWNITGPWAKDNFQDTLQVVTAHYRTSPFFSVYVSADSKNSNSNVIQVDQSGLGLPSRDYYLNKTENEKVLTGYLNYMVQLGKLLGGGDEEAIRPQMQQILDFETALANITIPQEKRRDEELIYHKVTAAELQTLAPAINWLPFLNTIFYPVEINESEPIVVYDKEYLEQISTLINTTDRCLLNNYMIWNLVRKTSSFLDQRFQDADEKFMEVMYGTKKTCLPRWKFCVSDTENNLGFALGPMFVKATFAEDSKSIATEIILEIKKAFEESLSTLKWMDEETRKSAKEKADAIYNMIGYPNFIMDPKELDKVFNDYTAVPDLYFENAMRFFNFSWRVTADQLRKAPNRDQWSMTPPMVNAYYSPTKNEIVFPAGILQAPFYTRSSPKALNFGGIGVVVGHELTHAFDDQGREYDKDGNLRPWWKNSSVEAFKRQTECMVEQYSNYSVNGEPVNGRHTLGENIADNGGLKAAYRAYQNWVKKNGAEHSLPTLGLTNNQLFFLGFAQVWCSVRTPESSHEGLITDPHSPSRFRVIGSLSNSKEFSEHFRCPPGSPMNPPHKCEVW

| SMILES | IC50 [1] [nM] | IC50 (Neprilysin) | IC50 [2] |
| --- | --- | --- | --- |
| C[C@H](CS)C(=O)N1[C@@H]2C[C@@H]2CC[C@H]1C(=O)O | 5.3 | Not Active | Not Active |
| C[C@H](CS)C(=O)N1[C@@H]2C[C@@H]2C[C@H]1C(=O)O | 7.6 | Not Active | Not Active |
| C[C@H](CS)C(=O)N1[C@H](C(=O)O)C[C@@H]2C[C@@H]21 | 6.6 | Not Active | Not Active |
